Experimental data reported in publication PMC10287695, “Non-covalent inhibitors of thioredoxin glutathione reductase with schistosomicidal activity in vivo” (Nature Communications, 2023).
Values joined by “and” are separate entries in the source; they are usually repeats but may differ in a detail not shown here. Equal values may be shown once. Read-outs that look alike come from different tables or passages of the source. Marks after values point to notes of the source that are not given here.

What was measured:
[1] = molecular target: T1, Human GR (Homo sapiens, UniProt P00390); test: Human GR enzyme inhibition (GSSG reduction, NADPH oxidation); assay type: biochemical; conditions: for inhibition at 15 µM / inhibition at 30 µM / inhibition at 66.7 µM / % inhibition: hGR; for inhibition at 15 µM / inhibition at 30 µM / inhibition at 66.7 µM: read-out: % inhibition
T1 construct: made in house
T1 sequence (P00390 44-522): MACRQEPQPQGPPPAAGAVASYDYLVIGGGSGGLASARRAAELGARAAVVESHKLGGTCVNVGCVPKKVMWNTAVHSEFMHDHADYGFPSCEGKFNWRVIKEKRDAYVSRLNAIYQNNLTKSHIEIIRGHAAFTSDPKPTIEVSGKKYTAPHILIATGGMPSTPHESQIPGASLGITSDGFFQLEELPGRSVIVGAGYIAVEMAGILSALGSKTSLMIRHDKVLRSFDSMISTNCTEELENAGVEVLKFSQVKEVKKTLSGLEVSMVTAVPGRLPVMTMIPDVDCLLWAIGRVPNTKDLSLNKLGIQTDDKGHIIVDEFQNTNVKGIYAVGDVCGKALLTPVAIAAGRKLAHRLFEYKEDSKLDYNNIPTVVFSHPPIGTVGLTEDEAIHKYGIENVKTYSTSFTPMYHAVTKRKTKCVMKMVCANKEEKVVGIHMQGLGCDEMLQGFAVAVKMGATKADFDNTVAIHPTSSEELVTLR

[2] = test system: S. mansoni adult worms; test: GSH/GSSG ratio in ex vivo adult worms; assay type: cell-based; conditions: for Decrease (%) in GSH/GSSG ratio: adult worms, 3 h exposure to compounds at 50 μM
Description: We assessed GSH/GSSG levels experimentally by treating S. mansoni adult worms with 50 µM of compounds, or respective controls 5 µM Auranofin, 50 µM PZQ or 50 µM MZM and 0.01% DMSO for 3 h. Worm homogenate was prepared by washing three times with PBS to remove residual compounds and ten volumes of ice cold 5% sulfosalicylic acid was added. Worms were manually homogenized on ice using VWR Pellet Mixer Adaptor. The worm suspension was centrifuged at 14000 × g, 4 °C for 10 min and the acid supernatants transferred. An equal volume of ice-cold neutralization buffer (500 mM HEPES, pH 8.0) was added to the acid supernatants.
GSH/GSSG assay was performed by diluting the acid supernatant (5-fold) with ice-cold dilution buffer (250 mM HEPES, pH 7.5). Using white opaque luminescence plate on ice, 25 µl of the diluted worm acid supernatant was added each well in triplicates. Total glutathione lysis reagent and GSSG lysis reagent, which contains alkylating agent N-ethylmaleimide (25 mM) were prepared following manufactures protocol and added to respective wells along with blank for background. Total glutathione lysis reagent or oxidized glutathione lysis reagent (25 µl) was added to respective wells containing worm acid supernatants and the plate was shaken for 5 min. Luciferin generation reagent (LGR) (50 µl) was added to all wells, briefly shaken and incubated at room temperature for 30 min. Luciferin detection reagent (LDR) (100 µl) was added to all wells, briefly shaken and incubated for 15 min at room temperature and the luminescence measured using microplate imager (BioTek Cytation3). GSH/GSSH ratio for DMSO control and compounds were calculated using (Net DMSO total glutathione RFU) – (Net DMSO GSSG RFU)/ (Net DMSO GSSG RFU)/2 and (Net inhibitor total glutathione RFU) – (Net inhibitor GSSG RFU)/ (Net inhibitor GSSG RFU)/2 respectively.

[3] = test system: S. mansoni adult worms; test: Schistosomicidal activity ex vivo, adult worms (Cell Titer Glo), alone or with channel blockers; assay type: cell-based; conditions: for LD50 ex vivo S. mansoni adult: 24 h exposure; for viability at 5 µM / viability at 10 µM / viability at 25 µM / viability at 30 µM / viability at 15 µM / viability at 50 µM: Schistosoma mansoni
Description: Three-week old, female Swiss-Webster mice obtained from the Charles River were housed in the Comparative Research Center of Rush University Medical Center. Mice were infected by percutaneous tail exposure to about 200 S. mansoni or 50 S. japonicum cercaria for adult worms and about 1000 cercaria for juvenile S. mansoni worms through natural transdermal penetration of the cercariae for 1 h[81].
DMSO formulated compounds were diluted with phenol red free M199 medium or RPMI medium for NTS or juvenile and adult worms, respectively, at <1% DMSO final concentrations. NTS, juvenile and adult worms from overnight cultures were tested against compounds in triplicate. Controls were treated with DMSO alone or 5 µM AF as a positive control in appropriate medium. […] Schistosome viabilities in the presence of the compounds were assessed using this formula: % Viability = Averages of Test / Averages of DMSO Control x 100.

[4] = 15 minutes pre-incubation, compound 15 µM
[5] = 15 minutes pre-incubation, compound 30 µM
[6] = 15 minutes pre-incubation, compound 66.7 µM
[7] = 6 hours pre-incubation, compound 15 µM
[8] = 6 hours pre-incubation, compound 30 µM
[9] = 6 hours pre-incubation, compound 66.7 µM
[10] = adult worms ex vivo, 1 hr, relative to 0hr
[11] = 1 hr, first data set (r117-133), baseline 55.82
[12] = 1 hr, first data set (r117-133), baseline = 100
[13] = 3 hr, first data set (r117-133), baseline 55.82
[14] = 3 hr, first data set (r117-133), baseline = 100

## Cc1oc(C2CCCCC2)nc1C(=O)N[C@@H]1C[C@@H]2C[C@H]([C@H]1C)C2(C)C [Compound 7]
[1]; 66.7 µM
  Human GR (inhibition at 66.7 µM): n.i.
[1]; [4]
  inhibition at 15 µM: -0.669%
[1]; [5]
  inhibition at 30 µM: -0.696%
[1]; [6]
  inhibition at 66.7 µM: -1.12%
[1]; [7]
  inhibition at 15 µM: -0.918%
[1]; [8]
  inhibition at 30 µM: -2.19%
[1]; [9]
  inhibition at 66.7 µM: -0.656%
[2]; adult worms ex vivo, 1 hr
  % Ratio GSH/GSSG: 52.5902%
[2]; [10]
  Reduction (%) in GSH/GSSG ratio: 13.6142%
[2]; adult worms ex vivo, 1 hr, relative to 0hr, values given as fraction
  Reduction (%) in GSH/GSSG ratio: 0.1361%
[2]; adult worms ex vivo, 3 hr
  % Ratio GSH/GSSG: 37.7921%
[2]; adult worms ex vivo, 3 hr, relative to 0hr
  Reduction (%) in GSH/GSSG ratio: 37.9219%
[2]; adult worms ex vivo, 3 hr, relative to 0hr, values given as fraction
  Reduction (%) in GSH/GSSG ratio: 0.3792%
[2]
  Decrease (%) in GSH/GSSG ratio: 38% and 36.9%
[3]; compound alone
  LD50 ex vivo S. mansoni adult: 32.6 ± 0.26 µM
[3]; 5 µM, compound alone, read-out: % viability, adult worms
  viability at 5 µM: 99.8%
[3]; 10 µM, compound alone, read-out: % viability, adult worms
  viability at 10 µM: 72.9%
[3]; 25 µM, compound alone, read-out: % viability, adult worms
  viability at 25 µM: 63%
[3]; 30 µM, compound alone, read-out: % viability, adult worms
  viability at 30 µM: 59%
[3]; S. mansoni adult worms, Conc. 5 µM, read-out: % viability
  viability at 5 µM: 99.8%
[3]; S. mansoni adult worms, Conc. 10 µM, read-out: % viability
  viability at 10 µM: 72.9%
[3]; S. mansoni adult worms, Conc. 25 µM, read-out: % viability
  viability at 25 µM: 63%
[3]; S. mansoni adult worms, Conc. 30 µM, read-out: % viability
  viability at 30 µM: 59%

## Cc1oc(C2CCCCC2)nc1CN[C@@H]1C[C@@H]2C[C@H]([C@H]1C)C2(C)C [Compound 4]
[1]; 66.7 µM
  Human GR (inhibition at 66.7 µM): n.i.
[2]; [11]
  Ratio GSH/GSSG: 28.16
[2]; [12]
  % Ratio GSH/GSSG: 50.452%
[2]; [13]
  Ratio GSH/GSSG: 18.95
[2]; [14]
  % Ratio GSH/GSSG: 33.9548%
[2]
  Decrease (%) in GSH/GSSG ratio: 60%
[3]; compound alone
  LD50 ex vivo S. mansoni adult: 12.6 ± 1.86 µM

## Cc1oc(-c2ccccc2)nc1CN[C@@H]1C[C@@H]2C[C@H]([C@H]1C)C2(C)C [C3]
[1]; [4]
  % inhibition: -2.234%
[1]; [5]
  % inhibition: -5.497%
[1]; [6]
  % inhibition: -7.805%
[1]; [7]
  % inhibition: -0.8033%
[1]; [8]
  % inhibition: -0.8345%
[1]; [9]
  % inhibition: -0.3955%

## C[C@@H]1[C@H]2C[C@@H](C[C@H]1NCc1nc3ccccc3n1C)C2(C)C [Compound 12]
[1]; 66.7 µM
  Human GR (inhibition at 66.7 µM): n.i.
[2]; adult worms ex vivo, 1 hr
  % Ratio GSH/GSSG: 59.2209%
[2]; [10]
  Reduction (%) in GSH/GSSG ratio: 1.36%
[2]; adult worms ex vivo, 3 hr
  % Ratio GSH/GSSG: 58.1972%
[3]; compound alone
  LD50 ex vivo S. mansoni adult: >50^a µM

## C[C@@H]1N=C(c2ccccc2Cl)c2cc([N+](=O)[O-])ccc2NC1=O [MZM, meclonazepam, reference compound]
[2]; [11]
  Ratio GSH/GSSG: 55.11
[2]; [12]
  % Ratio GSH/GSSG: 98.7253%
[2]; [13]
  Ratio GSH/GSSG: 55.10
[2]; [14]
  % Ratio GSH/GSSG: 98.7201%
[3]; compound alone
  LD50 ex vivo S. mansoni adult: 26.9 ± 0.97 µM
[3]
  viability at 5 µM: 91.9%
  viability at 15 µM: 69.8%
  viability at 30 µM: 48.7%
  viability at 50 µM: 31.3%

## Cc1oc(-c2ccc3ccccc3c2)nc1CNC1CCCCCC1 [C5]
[1]; [4]
  % inhibition: -0.1784%
[1]; [5]
  % inhibition: -0.6429%
[1]; [6]
  % inhibition: -2.462%
[1]; [7]
  % inhibition: -0.4334%
[1]; [8]
  % inhibition: -1.271%
[1]; [9]
  % inhibition: -0.3907%

## O=C(C1CCCCC1)N1CC(=O)N2CCc3ccccc3C2C1 (stereo not drawn) [PZQ, praziquantel]
[2]; [11]
  Ratio GSH/GSSG: 55.34
[2]; [12]
  % Ratio GSH/GSSG: 99.1418%
[2]; [13]
  Ratio GSH/GSSG: 55.09
[2]; [14]
  % Ratio GSH/GSSG: 98.6979%
[3]; compound alone
  LD50 ex vivo S. mansoni adult: 32.8 ± 4.07 µM
[3]
  viability at 5 µM: 95.6%
  viability at 15 µM: 75.1%
  viability at 30 µM: 54.8%
  viability at 50 µM: 35.2%

## Cc1oc(-c2ccccc2)nc1CN[C@@H]1C[C@@H]2C[C@H]([C@H]1C)C2(C)C [Compound 3]
[1]; 66.7 µM
  Human GR (inhibition at 66.7 µM): n.i.
[2]; [11]
  Ratio GSH/GSSG: 29.86
[2]; [12]
  % Ratio GSH/GSSG: 53.4928%
[2]; 1 hr, third data set
  Reduction (%) in GSH/GSSG ratio: 60.3556%
[2]; 1 hr, third data set (r147-159), 0hr 72.45
  Ratio GSH/GSSG: 28.72
[2]; 1 hr, third data set (r147-159), 0hr = 100
  % Ratio GSH/GSSG: 39.6444%
[2]; 1 hr, third data set, (values given as fraction)
  Reduction (%) in GSH/GSSG ratio: 0.60%
[2]; [13]
  Ratio GSH/GSSG: 25.64
[2]; [14]
  % Ratio GSH/GSSG: 45.9343%
[2]; 3 hr, third data set
  Reduction (%) in GSH/GSSG ratio: 70.1019%
[2]; 3 hr, third data set (r147-159), 0hr 72.45
  Ratio GSH/GSSG: 21.66
[2]; 3 hr, third data set (r147-159), 0hr = 100
  % Ratio GSH/GSSG: 29.8981%
[2]; 3 hr, third data set, (values given as fraction)
  Reduction (%) in GSH/GSSG ratio: 0.70%
[2]
  Decrease (%) in GSH/GSSG ratio: 62%
[3]; compound alone
  LD50 ex vivo S. mansoni adult: 12.1 ± 2.44 µM

## C[C@@H]1[C@H]2C[C@@H](C[C@H]1NCc1nc3ccccc3n1C)C2(C)C [C12]
[1]; 15 minutes pre-incubation, 15 µM
  hGR % inhibition: -0.9179%
[1]; 15 minutes pre-incubation, 30 µM
  hGR % inhibition: -2.193%
[1]; 15 minutes pre-incubation, 66.7 µM
  hGR % inhibition: -0.3071%
[1]; 6 hours pre-incubation, 15 µM
  hGR % inhibition: -3.5243%
[1]; 6 hours pre-incubation, 30 µM
  hGR % inhibition: -2.022%
[1]; 6 hours pre-incubation, 66.7 µM
  hGR % inhibition: -0.874%

## CC(=O)OC[C@H]1O[C@@H]([S-])[C@H](OC(C)=O)[C@@H](OC(C)=O)[C@@H]1OC(C)=O.CCP(CC)CC.[Au+] [AF, auranofin, reference compound]
[2]; [11]
  Ratio GSH/GSSG: 8.34
[2]; [12]
  % Ratio GSH/GSSG: 14.9481%
[2]; [13]
  Ratio GSH/GSSG: 4.85
[2]; [14]
  % Ratio GSH/GSSG: 8.693%
[2]
  Decrease (%) in GSH/GSSG ratio: 91%
[3]; compound alone
  LD50 ex vivo S. mansoni adult: 1.1 ± 0.04 µM
[3]; S. mansoni adult worms, Conc. 0.5 µM
  % viability: 85.422%
[3]; S. mansoni adult worms, Conc. 1 µM
  % viability: 43.1217%
[3]; S. mansoni adult worms, Conc. 2 µM
  % viability: 23.1816%
[3]; S. mansoni adult worms, Conc. 5 µM
  % viability: 3.259%
